{"source": "patent US7473690B2", "about": "“Tetralin and indane derivatives and uses thereof” (Roche Palo Alto LLC, priority 2004, dated 2009)", "key": {"[1]": {"target": "T1, recombinant human 5-HT6 receptor (Homo sapiens, UniProt P50406)", "T1 construct": "expressed in transfected cells; membranes)", "T1 sequence (P50406 whole entry)": "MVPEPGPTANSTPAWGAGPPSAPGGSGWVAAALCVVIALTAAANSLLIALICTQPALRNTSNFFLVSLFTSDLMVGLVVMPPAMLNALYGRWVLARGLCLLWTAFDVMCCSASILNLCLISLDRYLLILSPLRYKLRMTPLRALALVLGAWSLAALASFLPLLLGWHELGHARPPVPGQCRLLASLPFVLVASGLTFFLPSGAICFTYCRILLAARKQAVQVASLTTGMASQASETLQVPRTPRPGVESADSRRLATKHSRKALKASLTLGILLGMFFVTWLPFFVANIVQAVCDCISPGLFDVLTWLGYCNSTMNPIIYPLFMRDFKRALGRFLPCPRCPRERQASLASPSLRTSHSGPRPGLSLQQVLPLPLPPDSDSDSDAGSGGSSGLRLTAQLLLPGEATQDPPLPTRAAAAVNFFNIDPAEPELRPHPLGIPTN", "test": "Radioligand binding, [3H]LSD competition, 5-HT6", "details": "[3H]LSD displacement, membranes of HEK293 cells, pH 7.4, 37° C.; read-out: pKi for 5-HT6 (converted)", "experimental": "(§1) The binding activity of compounds of this invention in vitro was determined as follows. Duplicate determinations of 5-HT6 ligand affinity were made by competing for binding of [^3H]LSD in cell membranes derived from HEK293 cells stably expressing recombinant human 5-HT6 receptor. Duplicate determinations of 5-HT2A ligand affinity were made by competing for binding of [^3H]Ketanserin (3-(2-(4-(4-fluorobenzoyl)piperidinol)ethyl)-2,4(1H,3H)-quinazolinedione) in cell membranes derived from CHO-K1 cells stably expressing recombinant human 5-HT2A receptor. Membranes were prepared from HEK 293 cell lines by the method described by Monsma et al., Molecular Pharmacology, Vol. 43 pp. 320-327 (1993), and from CHO-K1 cell lines as described by Bonhaus et al., Br J Pharmacol. Jun; 115 (4):622-8 (1995).\n(§2) For estimation of affinity at the 5-HT6 receptor, all determinations were made in assay buffer containing 50 mM Tris-HCl, 10 mM MgSO4, 0.5 mM EDTA, 1 mM ascorbic acid, pH 7.4 at 37° C., in a 250 microliter reaction volume. […]\n(§3) Assay tubes containing [^3H] […] LSD or [^3H]Ketanserin were determined as radioactive counts per minute using Packard TopCount.\n(§4) Displacement of [^3H]LSD or [^3H]Ketanserin from the binding sites was quantified by fitting concentration-binding data to a 4-parameter logistic equation: […]"}, "[2]": {"target": "T2, recombinant human 5-HT2A receptor (Homo sapiens, UniProt P28223)", "T2 construct": "expressed in transfected cells; membranes)", "T2 sequence (P28223 whole entry)": "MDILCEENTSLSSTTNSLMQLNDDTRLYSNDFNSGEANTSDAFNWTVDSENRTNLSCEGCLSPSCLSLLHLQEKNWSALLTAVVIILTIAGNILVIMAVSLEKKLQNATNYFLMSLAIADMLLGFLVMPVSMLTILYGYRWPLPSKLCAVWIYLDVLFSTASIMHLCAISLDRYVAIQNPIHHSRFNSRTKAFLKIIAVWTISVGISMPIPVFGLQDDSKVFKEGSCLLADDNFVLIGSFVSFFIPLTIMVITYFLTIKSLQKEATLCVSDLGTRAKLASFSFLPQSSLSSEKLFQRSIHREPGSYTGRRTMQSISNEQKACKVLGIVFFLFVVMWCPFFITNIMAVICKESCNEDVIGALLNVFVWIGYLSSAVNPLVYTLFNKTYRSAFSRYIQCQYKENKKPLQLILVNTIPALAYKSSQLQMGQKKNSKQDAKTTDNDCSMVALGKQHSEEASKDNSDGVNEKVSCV", "test": "Radioligand binding, [3H]Ketanserin competition, 5-HT2A", "details": "[3H]Ketanserin displacement, membranes of CHO-K1 cells, pH 7.4, 32° C.; read-out: pKi for 5-HT2A (converted)", "experimental": "as §1, §2, §3, §4"}}, "data": [{"smiles": "CN1CCN(C2CCCc3cc(S(=O)(=O)c4ccccc4)ccc32)CC1", "note": "(centres unmarked) [Compound 11, 1-(6-Benzenesulfonyl-1,2,3,4-tetrahydro-naphthalen-1-yl)-4-methyl-piperazine]", "values": [{"measurement": "Ki", "setting": "[1]", "value": "~0.302", "unit": "nM"}, {"measurement": "Ki", "setting": "[2]", "value": "~17.4", "unit": "nM"}]}]}
